This note sets out measurements from ChEMBL document CHEMBL2385066, “Cationic porphyrin-quinoxaline conjugate as a photochemically triggered novel cytotoxic agent” (Bioorg Med Chem Lett, 2013).

Assay [1] concerns A549. Description: Phototoxicity against human A549 cells incubated for 24 hrs followed by UV-irradiation for 10 mins measured after 24 hrs by WST assay. Format: functional, cell-based.
Assay [2] concerns A549. Kind of assay: Phototoxicity against human A549 cells incubated for 24 hrs followed by exposure to visible-light for 10 mins measured after 24 hrs by WST assay. Format: functional, cell-based.
In assay [3] the test system is DNA. Description: Binding affinity to calf thymus DNA. Format: nucleic-acid assay. The conditions noted are these: Bos taurus.
Assay [4] deals with DNA. Description: Binding affinity to calf thymus DNA assessed as decrease in fluorescence intensity at 2 uM by spectroscopic analysis. The assay is classed as nucleic-acid assay. The conditions noted are these: Bos taurus.
Assay [5] deals with DNA. Description: Binding affinity to calf thymus DNA assessed as red shift in Soret region at 2 uM by UV-vis absorption titration. The assay is classed as nucleic-acid assay. The conditions noted are these: Bos taurus.
The subject of assay [6] is DNA. Kind of assay: Binding affinity to calf thymus DNA assessed as blue shift at 2 uM by fluorescence spectroscopic analysis. Format: nucleic-acid assay. The conditions noted are these: Bos taurus.
Assay [7] relates to Escherichia coli. Kind of assay: Induction of Escherichia coli pBR322 DNA cleavage assessed as conversion of supercoiled form to nicked circular form at 50 uM incubated for 30 mins followed by exposure to visible-light for 1 to 60 mins by agarose gel electrophoretic analysis.
For assay [8], the system named is Escherichia coli. Description: Induction of Escherichia coli pBR322 DNA cleavage assessed as conversion of supercoiled form to nicked circular form at 50 uM incubated for 30 mins followed by UV-irradiation for 1 to 60 mins by agarose gel electrophoretic analysis.
The subject of assay [9] is A549. Kind of assay: Ratio of TMPyP IC50 to compound IC50 for human A549 cells incubated for 24 hrs followed by exposure to visible-light for 10 mins measured after 24 hrs by WST assay. The assay is classed as functional.
For assay [10], the system named is DNA. Description: Binding affinity to calf thymus DNA assessed as hypochromicity at 2 uM by UV-vis absorption titration relative to control. The assay is classed as nucleic-acid assay. The conditions noted are these: Bos taurus.
Where [11] appears, read: Homo sapiens, A549, light or radiation study.

Calls of active or inactive are those of the source. No cut-off for these calls is given here.

As for `O=C(Nc1ccc(-c2c3nc(c(-c4ccncc4)c4ccc([nH]4)c(-c4ccncc4)c4nc(c(-c5ccncc5)c5ccc2[nH]5)C=C4)C=C3)cc1)c1cnc2ccccc2n1`, the IC50 came out at 170 nM in [1] (setting [11]) and 180 nM in assay [2] (setting [11]).

As for `C[n+]1ccc(-c2c3nc(c(-c4cc[n+](C)cc4)c4ccc([nH]4)c(-c4cc[n+](C)cc4)c4ccc([nH]4)c(-c4cc[n+](C)cc4)c4nc2C=C4)C=C3)cc1` [TMPYP4], the IC50 is 1240 nM in assay [1] (setting [11]) and 300 nM in assay [2] (setting [11]). The same compound came in with a K in assay [3] of 2.5 ×10⁶ /M.

Turning to `C[n+]1ccc(-c2c3nc(c(-c4cc[n+](C)cc4)c4ccc([nH]4)c(-c4cc[n+](C)cc4)c4nc(c(-c5ccc(NC(=O)c6cnc7ccccc7n6)cc5)c5ccc2[nH]5)C=C4)C=C3)cc1.[I-].[I-].[I-]`, the outcome in assay [4], in [5], in assay [6], in assay [7] and in assay [8] was Active. The IC50 was determined as 160 nM in [1] (a549) and 60 nM in assay [2] (a549). The “Ratio IC50” value in assay [9] is 5. Further, the Activity in assay [10] was 39%. In [3], this compound had a K of 1.26 ×10⁶ /M.

Take `C1=Cc2nc1c(-c1ccccc1)c1nc(c(-c3ccccc3)c3ccc([nH]3)c(-c3ccccc3)c3ccc([nH]3)c2-c2ccccc2)C=C1` [TETRAPHENYLPORPHYRIN]: the IC50 in assay [1] (setting [11]) and in assay [2] (setting [11]) was more than 20000 nM throughout.

As to `O=C(Nc1ccc(-c2c3nc(c(-c4ccccc4)c4ccc([nH]4)c(-c4ccccc4)c4nc(c(-c5ccccc5)c5ccc2[nH]5)C=C4)C=C3)cc1)c1cnc2ccccc2n1`, the IC50 in assay [1] (setting [11]) and in assay [2] (setting [11]) was more than 20000 nM in each case. Besides, the outcome in [7] was inactive. The result in assay [8] was Active. In addition, the K in assay [3] stood at 1.98 ×10⁵ /M.
